Assay results from patent US9217015B2, “Cyclosporin derivatives for the treatment and prevention of a viral infection” (S&T Global Inc., priority 2010, dated 2015).
Like-named read-outs stand apart in the source and are kept apart here. Numbered stars: 1 amine (or outer) side, 2 acyl side, 3 side chain; on linkers, the order of the positions; unused ones are H or OH. Square brackets hold non-standard residues; d marks the D form. Peptide text beside a SMILES is read from it. ξ: configuration not given here. MeBmt = C/C=C/C[C@@H](C)[C@@H](O)[C@H](NC)C(=O)O; X1 = CN([C@H](SCCCN1CCOCC1)C(=O)[*:2])[*:1]; X2 = CCN(CC)CCCS[C@H](C(=O)[*:2])N(C)[*:1]; X3 = CCN(CC)CCS[C@H](C(=O)[*:2])N(C)[*:1]; NMeIle(3ξ) = CCC(C)[C@H](NC)C(=O)O; NMeL = CN[C@@H](CC(C)C)C(=O)O; NMeV = CN[C@H](C(=O)O)C(C)C; Abu = CC[C@H](N)C(=O)O

What was measured:
[1] = assay type: physicochemical
Procedure: The stability of Cyclosporin derivatives were evaluated in methanol at 65° C. and 50° C., and HPLC was used to monitor possible degradation of these compounds (C8, 250 mm, NH4OAc 10 mmol in MeCN and H2O, operation temperature: 65° C.).

HCV replicon = experiment: HCV subgenomic replicon assay (Huh7 ET luc-ubi-neo/ET cells, luciferase end point); assay type: cell-based; settings: read-out: Antiviral activity IC50
Procedure: The anti-HCV activity of cyclosporine derivatives were evaluated in the HCV subgenomic replicon assay. The assay use the cell line ET (luc-ubi-neo/ET), which is a Huh7 human hepatoma cell line harboring an HCV replicon with a stable luciferase (Luc) reporter. HCV RNA replication was assessed by quantifying HCV replicon-derived luciferase activity. The antiviral activity of cyclosporine analogs were evaluated after drug treatment, the EC 50 and EC 90 were determined in subsequent assessments by using the luciferase end point (Krieger, N. et al., 2001, J. Virol. 75:4614-4624; Pietschmann, T. et al., 2002, J. Virol. 76:4008-4021; each of which is incorporated herein by reference).

[2] = Huh7 ET (luc-ubi-neo/ET) cells, HCV replicon-derived luciferase activity

Molecule | Epimerization in MeOH at 50° C. ([1]; 29 hrs) [%] | Epimerization in MeOH at 50° C. ([1]; 77 hrs) [%] | Epimerization in MeOH at 50° C. ([1]; 125 hrs) [%] | other results
C/C=C/C[C@@H](C)[C@@H](O)[C@H]1C(=O)N[C@@H](CC)C(=O)N(C)[C@H](SCCCN2CCOCC2)C(=O)N(C)[C@@H](C(C)C)C(=O)N[C@@H](C(C)C)C(=O)N(C)[C@@H](CC(C)C)C(=O)N[C@@H](C)C(=O)N[C@H](C)C(=O)N(C)[C@@H](CC(C)C)C(=O)N(C)[C@@H](CC(C)C)C(=O)N(C)[C@@H](C(C)C)C(=O)N1C (cyclo(A[dA][NMeL][NMeL][NMeV][MeBmt][Abu][X1][NMeV]V[NMeL])) | 0 | 0 | 0 | –
C/C=C/C[C@@H](C)[C@@H](O)[C@H]1C(=O)N[C@@H](CC)C(=O)N(C)[C@H](SCCN(CC)CC)C(=O)N(C)[C@@H](C(C)C)C(=O)N[C@@H](C(C)C)C(=O)N(C)[C@@H](CC(C)C)C(=O)N[C@@H](C)C(=O)N[C@H](C)C(=O)N(C)[C@@H](CC(C)C)C(=O)N(C)[C@@H](CC(C)C)C(=O)N(C)[C@@H](C(C)C)C(=O)N1C [Example 1, [(R)-2-(N,N-Diethylamino)ethylthio-Sar]-3-[N-methylvaline]-4-cyclosporin] (cyclo(A[dA][NMeL][NMeL][NMeV][MeBmt][Abu][X3][NMeV]V[NMeL])) | – | – | – | IC50 (HCV replicon; Hepatitis C virus, Huh7 ET): 0.05 µM
C/C=C/C[C@@H](C)[C@@H](O)[C@H]1C(=O)N[C@@H](CC)C(=O)N(C)[C@H](SCCN(CC)CC)C(=O)N(C)[C@@H](C(C)CC)C(=O)N[C@@H](C(C)C)C(=O)N(C)[C@@H](CC(C)C)C(=O)N[C@@H](C)C(=O)N[C@H](C)C(=O)N(C)[C@@H](CC(C)C)C(=O)N(C)[C@@H](CC(C)C)C(=O)N(C)[C@@H](C(C)C)C(=O)N1C (stereo partly drawn) [Example 4, [(R)-2-(N,N-Diethylamino)ethylthio-Sar]-3-[N-methylisoleucine]-4-cyclosporin] (cyclo(A[dA][NMeL][NMeL][NMeV][MeBmt][Abu][X3][NMeIle(3ξ)]V[NMeL])) | – | – | – | IC50 (HCV replicon; Hepatitis C virus, Huh7 ET): 0.04 µM
C/C=C/C[C@@H](C)[C@@H](O)[C@H]1C(=O)N[C@@H](CC)C(=O)N(C)[C@H](SCCCN2CCOCC2)C(=O)N(C)[C@@H](C(C)CC)C(=O)N[C@@H](C(C)C)C(=O)N(C)[C@@H](CC(C)C)C(=O)N[C@@H](C)C(=O)N[C@H](C)C(=O)N(C)[C@@H](CC(C)C)C(=O)N(C)[C@@H](CC(C)C)C(=O)N(C)[C@@H](C(C)C)C(=O)N1C (stereo partly drawn) [Example 6, [(R)-3-(N-Morpholino)propylthio-Sar]-3-[N-methylisoleucine]-4-cyclosporin] (cyclo(A[dA][NMeL][NMeL][NMeV][MeBmt][Abu][X1][NMeIle(3ξ)]V[NMeL])) | – | – | – | IC50 (HCV replicon; Hepatitis C virus, Huh7 ET): 0.05 µM
C/C=C/C[C@@H](C)[C@@H](O)[C@H]1C(=O)N[C@@H](CC)C(=O)N(C)[C@H](SCCN(C)C)C(=O)N(C)[C@@H](CC(C)(C)O)C(=O)N[C@@H](C(C)C)C(=O)N(C)[C@@H](CC(C)C)C(=O)N[C@@H](C)C(=O)N[C@H](C)C(=O)N(C)[C@@H](CC(C)C)C(=O)N(C)[C@@H](CC(C)C)C(=O)N(C)[C@@H](C(C)C)C(=O)N1C [SCY-635, reference compound] | – | – | – | Chemical stability (conversion to epimer), in words [1]: not chemically stable
C/C=C/C[C@@H](C)[C@@H](O)[C@H]1C(=O)N[C@@H](CC)C(=O)N(C)CC(=O)N(C)[C@@H](C(C)C)C(=O)N[C@@H](C(C)C)C(=O)N(C)[C@@H](CC(C)C)C(=O)N[C@@H](C)C(=O)N[C@H](C)C(=O)N(C)[C@@H](CC(C)C)C(=O)N(C)[C@@H](CC(C)C)C(=O)N(C)[C@@H](C(C)C)C(=O)N1C [SDZ-220-384, N-MeVal-4-cyclosporin, reference compound] | – | – | – | IC50 (HCV replicon; [2]): 0.17 µM
C/C=C/C[C@@H](C)[C@@H](O)[C@H]1C(=O)N[C@@H](CC)C(=O)N(C)CC(=O)N(C)[C@@H]([C@@H](C)CC)C(=O)N[C@@H](C(C)C)C(=O)N(C)[C@@H](CC(C)C)C(=O)N[C@@H](C)C(=O)N[C@H](C)C(=O)N(C)[C@@H](CC(C)C)C(=O)N(C)[C@@H](CC(C)C)C(=O)N(C)[C@@H](C(C)C)C(=O)N1C [SDZ-NIM-811, N-MeIle-4-Cyclosporin, reference compound] | – | – | – | IC50 (HCV replicon; Hepatitis C virus, Huh7 ET): 0.15 µM
C/C=C/C[C@@H](C)[C@@H](O)[C@H]1C(=O)N[C@@H](CC)C(=O)N(C)[C@H](SCCN(C)C)C(=O)N(C)[C@@H](CC(C)C)C(=O)N[C@@H](C(C)C)C(=O)N(C)[C@@H](CC(C)C)C(=O)N[C@@H](C)C(=O)N[C@H](C)C(=O)N(C)[C@@H](CC(C)C)C(=O)N(C)[C@@H](CC(C)C)C(=O)N(C)[C@@H](C(C)C)C(=O)N1C [[(R)-2-(N,N-Dimethylamino)ethylthio-Sar]-3-cyclosporin, reference compound] | – | – | – | Chemical stability (conversion to epimer), in words [1]: not stable
C/C=C/C[C@@H](C)[C@@H](O)[C@H]1C(=O)N[C@@H](CC)C(=O)N(C)[C@H](SCCN(C)C)C(=O)N(C)[C@@H](CC(C)C)C(=O)N[C@@H](C(C)C)C(=O)N(C)[C@@H](CC(C)C)C(=O)N[C@@H](C)C(=O)N[C@H](C)C(=O)N(C)[C@@H](CC(C)C)C(=O)N(C)[C@@H](CC(C)C)C(=O)N(C)[C@@H](C(C)C)C(=O)N1C [drawing 57] | – | – | – | Epimerization in MeOH at 65° C. ([1]; 2 hours): 12%; Epimerization in MeOH at 65° C. ([1]; 4 hours): 19%; Epimerization in MeOH at 65° C. ([1]; 6 hours): 23%
[(S)-2-(N,N-Diethylamino)ethylthio-Sar]-3-[N-methylvaline]-4-cyclosporin | – | – | – | IC50 (HCV replicon; [2]): 3.66 µM

More lines, main results first:

Epimerization in MeOH at 50° C. ([1]; 29 hrs) [%] | Epimerization in MeOH at 50° C. ([1]; 77 hrs) [%] | Epimerization in MeOH at 50° C. ([1]; 125 hrs) [%] | Molecule | other results
0 | 0 | 0 | C/C=C/C[C@@H](C)[C@@H](O)[C@H]1C(=O)N[C@@H](CC)C(=O)N(C)[C@H](SCCCN2CCOCC2)C(=O)N(C)[C@@H](C(C)CC)C(=O)N[C@@H](C(C)C)C(=O)N(C)[C@@H](CC(C)C)C(=O)N[C@@H](C)C(=O)N[C@H](C)C(=O)N(C)[C@@H](CC(C)C)C(=O)N(C)[C@@H](CC(C)C)C(=O)N(C)[C@@H](C(C)C)C(=O)N1C (some centres unmarked) (cyclo(A[dA][NMeL][NMeL][NMeV][MeBmt][Abu][X1][NMeIle(3ξ)]V[NMeL])) | –
0 | 0 | 0 | C/C=C/C[C@@H](C)[C@@H](O)[C@H]1C(=O)N[C@@H](CC)C(=O)N(C)[C@H](SCCCN(CC)CC)C(=O)N(C)[C@@H](C(C)CC)C(=O)N[C@@H](C(C)C)C(=O)N(C)[C@@H](CC(C)C)C(=O)N[C@@H](C)C(=O)N[C@H](C)C(=O)N(C)[C@@H](CC(C)C)C(=O)N(C)[C@@H](CC(C)C)C(=O)N(C)[C@@H](C(C)C)C(=O)N1C (some centres unmarked) (cyclo(A[dA][NMeL][NMeL][NMeV][MeBmt][Abu][X2][NMeIle(3ξ)]V[NMeL])) | –
0 | 0 | 0 | C/C=C/C[C@@H](C)[C@@H](O)[C@H]1C(=O)N[C@@H](CC)C(=O)N(C)[C@H](SCCCN(CC)CC)C(=O)N(C)[C@@H](C(C)C)C(=O)N[C@@H](C(C)C)C(=O)N(C)[C@@H](CC(C)C)C(=O)N[C@@H](C)C(=O)N[C@H](C)C(=O)N(C)[C@@H](CC(C)C)C(=O)N(C)[C@@H](CC(C)C)C(=O)N(C)[C@@H](C(C)C)C(=O)N1C (cyclo(A[dA][NMeL][NMeL][NMeV][MeBmt][Abu][X2][NMeV]V[NMeL])) | –
25.5 | 31.8 | 34.9 | C/C=C/C[C@@H](C)[C@@H](O)[C@H]1C(=O)N[C@@H](CC)C(=O)N(C)[C@H](SCCN(C)C)C(=O)N(C)[C@@H](CC(C)C)C(=O)N[C@@H](C(C)C)C(=O)N(C)[C@@H](CC(C)C)C(=O)N[C@@H](C)C(=O)N[C@H](C)C(=O)N(C)[C@@H](CC(C)C)C(=O)N(C)[C@@H](CC(C)C)C(=O)N(C)[C@@H](C(C)C)C(=O)N1C [drawing 58, reference compound] | –
4.4 | 10.4 | 16.2 | C/C=C/C[C@@H](C)[C@@H](O)[C@H]1C(=O)N[C@@H](CC)C(=O)N(C)[C@H](SCCN(CC)CC)C(=O)N(C)[C@@H](C(C)CC)C(=O)N[C@@H](C(C)C)C(=O)N(C)[C@@H](CC(C)C)C(=O)N[C@@H](C)C(=O)N[C@H](C)C(=O)N(C)[C@@H](CC(C)C)C(=O)N(C)[C@@H](CC(C)C)C(=O)N(C)[C@@H](C(C)C)C(=O)N1C (some centres unmarked) [reference compound] (cyclo(A[dA][NMeL][NMeL][NMeV][MeBmt][Abu][X3][NMeIle(3ξ)]V[NMeL])) | –
